# Measurements from patent publication US11530244B2, “Cyclic polypeptides for PCSK9 inhibition” (priority 2018, dated 2022).
# Starred links: 1 amine or outer side, 2 acyl side, 3 side chain; linkers in the order of their positions; H or OH if unused. Positions of bridges follow the written chain, without caps; N, C: chain ends. Non-standard residues stand in square brackets, D forms with d. Residues, ends and D or L forms follow the SMILES beside them. ξ: configuration not given here. Phe(3-CH2NH2) = O=C([C@H](Cc1cccc(CN[*:3])c1)N[*:1])[*:2]; X5 = O=C([C@@H]1C[C@H](SCc2ccc(C[*:3])cc2)CN1[*:1])[*:2]; Pro(cis-4-OPh) = O=C(O)[C@@H]1C[C@H](Oc2ccccc2)CN1; Pro(cis-4-CF3) = O=C(O)[C@@H]1C[C@H](C(F)(F)F)CN1; Trp(5-F) = N[C@@H](Cc1c[nH]c2ccc(F)cc12)C(=O)O; Phe(4-CH2NH2) = NCc1ccc(C[C@H](N)C(=O)O)cc1; ξPhe(4-COOH) = NC(Cc1ccc(C(=O)O)cc1)C(=O)O; X4 = O=C(CCSCc1cccc(CSCCN[*:1])c1)[*:2]; mXylylene = c1cc(C[*:1])cc(C[*:2])c1; AEF = NCCOc1ccc(C[C@H](N)C(=O)O)cc1; NMeY = CN[C@@H](Cc1ccc(O)cc1)C(=O)O; Glutaryl = O=C(CCCC(=O)[*:2])[*:1]; X8 = Clc1cc(C[*:1])cc(C[*:2])c1; Cha = N[C@@H](CC1CCCCC1)C(=O)O; aThr = C[C@H](O)[C@H](N)C(=O)O; NMeL = CN[C@@H](CC(C)C)C(=O)O; αMeP = C[C@@]1(C(=O)O)CCCN1; dOrn = NCCC[C@@H](N)C(=O)O; hSer = N[C@@H](CCO)C(=O)O; X2 = O=C(C[*:2])[*:1]; Mpa = O=C(O)CCS
# Legend:
# Assay type in all cases: binding
# PCSK9 [1] = molecular target: T1, PCSK9 (Homo sapiens (Human), UniProt Q8NBP7); test: PCSK9 Alexa FRET Plus assay (displacement of AlexaFluor647 tagged cyclic peptide Reagent B); details: 0.5 nM PCSK9, 960 nM AF cyclic peptide Reagent B
# T1 sequence (Q8NBP7 153-692): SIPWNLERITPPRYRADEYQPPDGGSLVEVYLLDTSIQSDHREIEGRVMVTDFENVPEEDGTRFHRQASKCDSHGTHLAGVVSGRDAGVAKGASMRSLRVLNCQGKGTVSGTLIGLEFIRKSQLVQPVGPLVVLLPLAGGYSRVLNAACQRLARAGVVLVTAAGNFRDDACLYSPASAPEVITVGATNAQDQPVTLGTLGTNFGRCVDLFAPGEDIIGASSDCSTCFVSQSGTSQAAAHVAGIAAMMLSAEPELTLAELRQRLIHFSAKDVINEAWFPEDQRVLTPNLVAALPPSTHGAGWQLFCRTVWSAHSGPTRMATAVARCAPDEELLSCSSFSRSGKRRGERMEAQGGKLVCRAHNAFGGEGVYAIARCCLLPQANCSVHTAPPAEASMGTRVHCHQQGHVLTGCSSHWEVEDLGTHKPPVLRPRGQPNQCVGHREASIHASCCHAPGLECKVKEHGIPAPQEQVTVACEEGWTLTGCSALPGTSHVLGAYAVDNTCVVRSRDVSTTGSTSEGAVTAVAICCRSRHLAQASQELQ
# In short: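 TR-FRET displacement with final 0.5 nM biotinylated PCSK9, 1.25 nM Strep-Eu and 960 nM AlexaFluor-tagged cyclic peptide in HEPES pH 7.4, NaCl, CaCl2, BSA, P20; ≥2 h at room temperature. IC50 from sigmoidal fit, converted to Ki using peptide KD. Falling europium counts flagged false positives.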
# [2] = molecular target: human PCSK9 / human LDLR EGFa domain interaction (Homo sapiens (Human), UniProt Q8NBP7); test: TR-FRET assay of inhibition of the PCSK9-LDLR protein-protein interaction; details: TR-FRET, 20 nM human PCSK9, 20 nM human LDLR EGFa domain, 2 hours room temperature; read-out: IC50
# human PCSK9 / human LDLR EGFa domain interaction, sequence (Q8NBP7 153-692): as above
# human PCSK9 / human LDLR EGFa domain interaction, sequence (Q8NBP7 31-152 partner): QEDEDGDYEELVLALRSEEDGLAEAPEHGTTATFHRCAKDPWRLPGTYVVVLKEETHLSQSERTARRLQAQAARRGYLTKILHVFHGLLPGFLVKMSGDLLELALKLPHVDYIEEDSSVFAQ
# In short: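 Compounds in dose-response are mixed with 20 nM human PCSK9 (avitag-biotinylated) and 20 nM his-tagged LDLR EGFa domain, plus 5 nM each streptavidin-Ulight and Eu-anti-6×His. After 2 h at room temperature in HEPES/NaCl/CaCl2 buffer with BSA and P20, TR-FRET is read and IC50 fitted (4-parameter).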
# PCSK9 [3] = molecular target: T1, PCSK9; test: PCSK9 Alexa FRET Standard assay (displacement of AlexaFluor647 tagged cyclic peptide Reagent A); details: PCSK9 Alexa FRET Standard assay, 0.5 nM PCSK9, 20 nM AF cyclic peptide Reagent A; read-out: IC50
# In short: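 TR-FRET displacement: 0.5 nM biotinylated PCSK9 with 1.25 nM Strep-Eu and 20 nM AlexaFluor-tagged cyclic peptide (final) in 50 mM HEPES pH 7.4, 0.15 M NaCl, 5 mM CaCl2, 0.01% BSA, 0.01% P20, ≥2 h at room temperature. IC50 from sigmoidal fit, converted to Ki via peptide KD; falling Eu counts flagged false positives.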
# [4] = Alexa FRET Plus, read-out: IC50
IC50 (PCSK9 [1]; [4]) [nM],IC50 [2] [nM],IC50 (PCSK9 [3]) [nM],SMILES,"IC50 (PCSK9 [1]; IC50, Alexa FRET Plus) [nM]"
0.1 to 100,0.1 to 100,0.11 to 100,COc1ccc(C[C@@H]2NC(=O)[C@@H](CC(C)C)NC(=O)[C@H]([C@@H](C)OC)NC(=O)CCSCc3cccc(c3)CSC[C@@H](C(N)=O)NC(=O)[C@]3(C)CCCN3C(=O)[C@H](Cc3ccc(OC)cc3)NC(=O)[C@H]([C@@H](C)OC)NC(=O)[C@H](CC(C)C)N(C)C(=O)[C@H](Cc3ccc(OC)cc3)NC2=O)cc1 [Compound 035] ([Mpa]T(Me)[dL]Y(Me)Y(Me)[NMeL]T(Me)Y(Me)[αMeP]C-NH2; linker 1-10 via mXylylene),–
500 to 5000,0.1 to 100,100 to 1000,NCCCC[C@@H]1NC(=O)CCCn2cc(nn2)CCC[C@@H](C(N)=O)NC(=O)[C@@H]2CCCN2C(=O)[C@H](Cc2ccc(O)cc2)NC(=O)[C@H](Cc2c[nH]cn2)NC(=O)[C@H](CC(=O)O)NC(=O)[C@H](Cc2c[nH]c3ccc(F)cc23)NC(=O)[C@H](Cc2c[nH]c3ccc(F)cc23)NC(=O)CNC1=O [Compound 152],–
0.1 to 100,0.1 to 100,0.11 to 100,NCCCC[C@@H]1NC(=O)CCCn2cc(nn2)C[C@@H](C(N)=O)NC(=O)[C@@H]2CCCN2C(=O)[C@H](Cc2ccc(O)cc2)NC(=O)[C@H](Cc2c[nH]cn2)NC(=O)[C@H](CC(=O)O)NC(=O)[C@H](Cc2c[nH]c3ccc(F)cc23)NC(=O)[C@H](Cc2c[nH]c3ccc(F)cc23)NC(=O)CNC1=O [Compound 184],–
100 to 500,0.1 to 100,0.11 to 100,NCCCC[C@@H]1NC(=O)CCSCc2cccc(c2)CSC[C@@H](C(N)=O)NC(=O)[C@@H]2CCCN2C(=O)[C@H](Cc2ccc(O)cc2)NC(=O)[C@H](Cc2c[nH]cn2)NC(=O)[C@H](CC(=O)O)NC(=O)[C@H](Cc2c[nH]c3ccc(F)cc23)NC(=O)[C@H](CC2CCCCC2)NC(=O)CNC1=O [Compound 223] ([Mpa]KG[Cha][Trp(5-F)]DHYPC-NH2; linker 1-10 via mXylylene),–
0.1 to 100,0.1 to 100,0.11 to 100,NCCCC[C@@H]1NC(=O)CCSCc2cccc(c2)CSC[C@@H](C(N)=O)NC(=O)[C@@H]2C[C@H](C(F)(F)F)CN2C(=O)[C@H](Cc2ccc(O)cc2)NC(=O)[C@H](Cc2c[nH]cn2)NC(=O)[C@H](CC(=O)O)NC(=O)[C@H](Cc2c[nH]c3ccc(F)cc23)NC(=O)[C@H](Cc2c[nH]c3ccc(F)cc23)NC(=O)CNC1=O [Compound 296] ([Mpa]KG[Trp(5-F)][Trp(5-F)]DHY[Pro(cis-4-CF3)]C-NH2; linker 1-10 via mXylylene),–
100 to 500,0.1 to 100,0.11 to 100,CC(=O)N[C@@H]1CCCNC(=O)c2ccc(cc2)CC(C(N)=O)NC(=O)[C@]2(C)CCCN2C(=O)[C@H](Cc2ccc(O)cc2)NC(=O)[C@H](Cc2cnc[nH]2)NC(=O)[C@H](CC(=O)O)NC(=O)[C@H](Cc2c[nH]c3ccc(F)cc23)NC(=O)[C@H](Cc2c[nH]c3ccc(F)cc23)NC(=O)CNC1=O (stereo partly drawn) [Compound 327] (Ac-[dOrn]G[Trp(5-F)][Trp(5-F)]DHY[αMeP][ξPhe(4-COOH)]-NH2; lactam 1-9),–
500 to 5000,0.1 to 100,100 to 1000,NCCCC[C@@H]1NC(=O)CCSCc2ccc(cc2)CS[C@H]2C[C@@H](C(N)=O)N(C2)C(=O)[C@H](Cc2ccc(O)cc2)NC(=O)[C@H](Cc2cnc[nH]2)NC(=O)[C@H](CC(=O)O)NC(=O)[C@H](Cc2c[nH]c3ccc(F)cc23)NC(=O)[C@H](Cc2c[nH]c3ccc(F)cc23)NC(=O)CNC1=O [Compound 328] ([Mpa]KG[Trp(5-F)][Trp(5-F)]DHY[X5]-NH2; thioether 1-9),–
0.1 to 100,0.1 to 100,0.11 to 100,COc1ccc(C[C@@H]2NC(=O)[C@H]([C@@H](C)OC)NC(=O)[C@H](CCC(=O)O)NC(=O)[C@H](Cc3c[nH]c4ccc(F)cc34)NC(=O)[C@H](Cc3cccc(CN)c3)NC(=O)[C@@H](C)NC(=O)[C@H](C)NC(=O)CCSCc3cccc(c3)CSCCNC(=O)[C@]3(C)CCCN3C2=O)cc1 [Compound 343] (cyclo(A[dA][Phe(3-CH2NH2)][Trp(5-F)]ET(Me)Y(Me)[αMeP][X4])),–
100 to 500,0.1 to 100,0.11 to 100,COc1ccc(C[C@@H]2NC(=O)[C@H](Cc3cnc[nH]3)NC(=O)[C@H](CC(=O)O)NC(=O)[C@H](Cc3c[nH]c4ccc(F)cc34)NC(=O)[C@H](Cc3c[nH]c4ccc(F)cc34)NC(=O)[C@@H](C)NC(=O)[C@H](CCCCN)NC(=O)[C@@H](NC(C)=O)CC(=O)NCCOc3ccc(cc3)C[C@@H](C(N)=O)NC(=O)[C@]3(C)CCCN3C2=O)cc1 [Compound 349] (Ac-DK[dA][Trp(5-F)][Trp(5-F)]DHY(Me)[αMeP][AEF]-NH2; lactam 1-10),–
100 to 500,0.1 to 100,0.11 to 100,C[C@@]12CCCN1C(=O)[C@H](Cc1ccc(O)cc1)NC(=O)[C@H](Cc1c[nH]cn1)NC(=O)[C@H](CC(=O)O)NC(=O)[C@H](Cc1c[nH]c3ccc(F)cc13)NC(=O)[C@H](Cc1c[nH]c3ccc(F)cc13)NC(=O)CNC(=O)[C@H](CCCCN)NC(=O)CCSCc1cc(Cl)cc(c1)CSC[C@@H](C(N)=O)NC2=O [Compound 358] ([Mpa]KG[Trp(5-F)][Trp(5-F)]DHY[αMeP]C-NH2; linker 1-10 via X8),–
0.1 to 100,0.1 to 100,0.11 to 100,CC(=O)N[C@H]1CCCCNC(=O)COc2ccc(cc2)C[C@@H](C(N)=O)NC(=O)[C@]2(C)CCCN2C(=O)[C@H](Cc2ccc(O)cc2)NC(=O)[C@H](Cc2cnc[nH]2)NC(=O)[C@H](CC(=O)O)NC(=O)[C@H](Cc2c[nH]c3ccc(F)cc23)NC(=O)[C@H](Cc2c[nH]c3ccc(F)cc23)NC(=O)CNC1=O [Compound 365] (Ac-KG[Trp(5-F)][Trp(5-F)]DHY[αMeP]Y-NH2; linker 1-9 via X2),–
500 to 5000,0.1 to 100,100 to 1000,NCCCC[C@@H]1NC(=O)CCSCc2cccc(c2)CSC[C@@H](C(N)=O)NC(=O)[C@@H]2C[C@H](Oc3ccccc3)CN2C(=O)[C@H](Cc2ccc(O)cc2)NC(=O)[C@H](Cc2cnc[nH]2)NC(=O)[C@H](CC(=O)O)NC(=O)[C@H](Cc2c[nH]c3ccc(F)cc23)NC(=O)[C@H](Cc2c[nH]c3ccc(F)cc23)NC(=O)CNC1=O [Compound 367] ([Mpa]KG[Trp(5-F)][Trp(5-F)]DHY[Pro(cis-4-OPh)]C-NH2; linker 1-10 via mXylylene),–
100 to 500,0.1 to 100,0.11 to 100,C[C@@]12CCCN1C(=O)[C@H](Cc1ccc(O)cc1)NC(=O)[C@H](Cc1cnc[nH]1)NC(=O)[C@H](CC(=O)O)NC(=O)[C@H](Cc1c[nH]c3ccc(F)cc13)NC(=O)[C@H](Cc1c[nH]c3ccc(F)cc13)NC(=O)CNC(=O)[C@H](CCO)NC(=O)CCSCc1cccc(c1)CSC[C@@H](C(N)=O)NC2=O [Compound 376] ([Mpa][hSer]G[Trp(5-F)][Trp(5-F)]DHY[αMeP]C-NH2; linker 1-10 via mXylylene),–
100 to 500,0.1 to 100,0.11 to 100,CO[C@@H](C)[C@@H]1NC(=O)CCSCc2cccc(c2)CSC[C@@H](C(N)=O)NC(=O)[C@]2(C)CCCN2C(=O)[C@H](Cc2ccc(O)cc2)NC(=O)[C@H](Cc2cnc[nH]2)NC(=O)[C@H](CC(=O)O)NC(=O)[C@H](Cc2c[nH]c3ccc(F)cc23)NC(=O)[C@H](Cc2c[nH]c3ccc(F)cc23)NC(=O)CNC1=O [Compound 377] ([Mpa][aThr](Me)G[Trp(5-F)][Trp(5-F)]DHY[αMeP]C-NH2; linker 1-10 via mXylylene),–

SMILES,IC50 (PCSK9 [1]; [4]) [nM],IC50 [2] [nM],IC50 (PCSK9 [3]) [nM],"IC50 (PCSK9 [1]; IC50, Alexa FRET Plus) [nM]"
COc1ccc(C[C@@H]2NC(=O)[C@H]([C@@H](C)O)NC(=O)[C@@H]3C[C@H](F)CN3C(=O)[C@H](Cc3c[nH]c4ccc(F)cc34)NC(=O)[C@H](Cc3c[nH]c4ccc(F)cc34)NC(=O)[C@@H](C)NC(=O)CNC(=O)CCCCNCc3ccc(cc3)C[C@@H](C(N)=O)NC(=O)[C@]3(C)CCCN3C2=O)cc1 [Compound 130],–,0.1 to 100,0.11 to 100,100 to 500
C[C@H]1NC(=O)[C@H](CCCCN)NC(=O)CCSCc2cccc(c2)CSCCNC(=O)[C@]2(C)CCCN2C(=O)[C@H](Cc2ccc(O)cc2)N(C)C(=O)[C@H](Cc2c[nH]cn2)NC(=O)[C@H](CC(=O)O)NC(=O)[C@H](Cc2c[nH]c3ccc(F)cc23)NC(=O)[C@H](Cc2c[nH]c3ccc(F)cc23)NC1=O [Compound 277] (cyclo(DH[NMeY][αMeP][X4]K[dA][Trp(5-F)][Trp(5-F)])),100 to 500,0.1 to 100,0.11 to 100,–
C[C@@H]1NC(=O)CCCC(=O)NCc2ccc(cc2)C[C@@H](C(N)=O)NC(=O)[C@]2(C)CCCN2C(=O)[C@H](Cc2ccc(O)cc2)NC(=O)[C@H](Cc2cnc[nH]2)NC(=O)[C@H](CC(=O)O)NC(=O)[C@H](Cc2c[nH]c3ccc(F)cc23)NC(=O)[C@H](Cc2c[nH]c3ccc(F)cc23)NC(=O)CNC1=O [Compound 366] (AG[Trp(5-F)][Trp(5-F)]DHY[αMeP][Phe(4-CH2NH2)]-NH2; linker N-9 via Glutaryl),0.1 to 100,0.1 to 100,0.11 to 100,–
